Laboratory results: PMC6199744, “Development of Chemical Proteomics for the Folateome and Analysis of the Kinetoplastid Folateome” (ACS Infectious Diseases, 2018)
Like-named read-outs stand apart in the source and are kept apart here.

Key:
Format in all cases: binding
[1] = biological target: T1, HeLa cell extract proteins (Homo sapiens, UniProt Q15084)
T1 construct: endogenous in cells; host or cells: HeLa cell extract
T1 sequence (Q15084 20-440): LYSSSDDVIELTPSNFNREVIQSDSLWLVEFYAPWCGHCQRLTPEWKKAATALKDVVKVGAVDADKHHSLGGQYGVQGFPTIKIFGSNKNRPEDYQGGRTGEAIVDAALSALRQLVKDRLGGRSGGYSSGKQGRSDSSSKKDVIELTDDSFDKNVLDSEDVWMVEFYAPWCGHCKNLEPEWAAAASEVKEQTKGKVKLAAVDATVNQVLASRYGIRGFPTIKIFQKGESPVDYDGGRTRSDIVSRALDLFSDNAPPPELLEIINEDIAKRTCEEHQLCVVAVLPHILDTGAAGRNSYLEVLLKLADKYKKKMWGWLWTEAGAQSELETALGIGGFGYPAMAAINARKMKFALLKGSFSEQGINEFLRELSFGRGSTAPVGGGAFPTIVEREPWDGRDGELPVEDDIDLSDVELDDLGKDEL

[2] = biological target: T2, HeLa cell extract proteins (Homo sapiens, UniProt P06730)
T2 construct: endogenous in cells; host or cells: HeLa cell extract
T2 sequence (P06730 whole entry): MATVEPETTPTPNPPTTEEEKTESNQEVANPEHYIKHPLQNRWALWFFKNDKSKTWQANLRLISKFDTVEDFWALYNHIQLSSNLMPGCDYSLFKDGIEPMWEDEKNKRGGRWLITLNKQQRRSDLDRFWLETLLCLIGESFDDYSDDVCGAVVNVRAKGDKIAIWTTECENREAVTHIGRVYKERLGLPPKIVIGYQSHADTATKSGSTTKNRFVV

[3] = biological target: T3, HeLa cell extract proteins (Homo sapiens, UniProt Q9NVE7)
T3 construct: endogenous in cells; host or cells: HeLa cell extract
T3 sequence (Q9NVE7 1-773): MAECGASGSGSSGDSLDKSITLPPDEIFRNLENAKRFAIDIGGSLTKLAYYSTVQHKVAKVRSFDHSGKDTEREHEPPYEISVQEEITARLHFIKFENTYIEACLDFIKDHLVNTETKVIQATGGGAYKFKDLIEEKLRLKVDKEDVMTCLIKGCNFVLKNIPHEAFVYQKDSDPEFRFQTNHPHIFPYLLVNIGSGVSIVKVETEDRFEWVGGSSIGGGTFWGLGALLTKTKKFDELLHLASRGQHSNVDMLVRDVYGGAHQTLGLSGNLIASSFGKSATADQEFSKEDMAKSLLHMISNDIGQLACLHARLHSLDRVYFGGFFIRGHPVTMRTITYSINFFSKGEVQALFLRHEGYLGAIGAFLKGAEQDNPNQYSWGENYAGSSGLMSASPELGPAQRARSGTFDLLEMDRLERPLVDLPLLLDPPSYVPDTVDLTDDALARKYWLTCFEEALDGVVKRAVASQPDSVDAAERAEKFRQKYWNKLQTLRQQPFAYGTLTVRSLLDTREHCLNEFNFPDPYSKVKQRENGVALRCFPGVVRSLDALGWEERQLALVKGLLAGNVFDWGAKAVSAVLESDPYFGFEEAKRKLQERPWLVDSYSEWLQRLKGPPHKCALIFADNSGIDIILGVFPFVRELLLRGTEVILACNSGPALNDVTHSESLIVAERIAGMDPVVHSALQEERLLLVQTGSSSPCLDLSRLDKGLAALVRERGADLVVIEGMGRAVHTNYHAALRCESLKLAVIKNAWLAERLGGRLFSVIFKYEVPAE

[4] = biological target: T4, HeLa cell extract proteins (Homo sapiens, UniProt Q9NVI7)
T4 construct: endogenous in cells; host or cells: HeLa cell extract
T4 sequence (Q9NVI7 1-586): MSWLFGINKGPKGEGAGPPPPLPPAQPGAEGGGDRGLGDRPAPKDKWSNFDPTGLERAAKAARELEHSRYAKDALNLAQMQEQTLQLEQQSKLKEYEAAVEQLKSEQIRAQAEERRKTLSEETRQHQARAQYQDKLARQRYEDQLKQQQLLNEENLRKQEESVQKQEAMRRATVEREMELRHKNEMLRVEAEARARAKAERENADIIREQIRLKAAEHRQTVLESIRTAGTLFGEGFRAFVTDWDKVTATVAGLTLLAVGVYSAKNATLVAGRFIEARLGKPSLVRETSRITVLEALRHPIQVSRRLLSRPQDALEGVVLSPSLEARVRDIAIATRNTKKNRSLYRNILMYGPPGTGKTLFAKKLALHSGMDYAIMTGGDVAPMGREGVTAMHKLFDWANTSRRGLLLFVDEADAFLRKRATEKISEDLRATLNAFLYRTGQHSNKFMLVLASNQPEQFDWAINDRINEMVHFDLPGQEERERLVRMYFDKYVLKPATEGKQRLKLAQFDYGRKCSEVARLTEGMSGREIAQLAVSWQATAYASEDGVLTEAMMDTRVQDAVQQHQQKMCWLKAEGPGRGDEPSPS

[5] = biological target: T5, HeLa cell extract proteins (Homo sapiens, UniProt Q9Y262)
T5 construct: endogenous in cells; host or cells: HeLa cell extract
T5 sequence (Q9Y262 whole entry): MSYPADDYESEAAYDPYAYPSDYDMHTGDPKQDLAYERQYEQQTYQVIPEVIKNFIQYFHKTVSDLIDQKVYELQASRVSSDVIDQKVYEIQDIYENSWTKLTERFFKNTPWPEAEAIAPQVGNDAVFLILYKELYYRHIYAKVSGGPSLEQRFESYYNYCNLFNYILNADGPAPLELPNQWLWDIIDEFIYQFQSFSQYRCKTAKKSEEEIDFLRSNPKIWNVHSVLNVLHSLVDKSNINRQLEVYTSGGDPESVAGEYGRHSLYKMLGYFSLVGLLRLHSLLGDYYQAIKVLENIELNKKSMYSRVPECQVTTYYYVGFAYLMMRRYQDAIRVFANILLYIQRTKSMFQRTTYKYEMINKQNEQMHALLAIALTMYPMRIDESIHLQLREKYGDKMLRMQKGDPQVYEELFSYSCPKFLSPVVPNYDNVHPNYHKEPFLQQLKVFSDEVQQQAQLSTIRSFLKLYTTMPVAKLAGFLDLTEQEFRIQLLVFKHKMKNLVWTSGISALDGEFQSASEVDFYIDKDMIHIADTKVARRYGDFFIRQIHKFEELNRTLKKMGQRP

[6] = biological target: T6, HeLa cell extract proteins (Homo sapiens, UniProt P61160)
T6 construct: endogenous in cells; host or cells: HeLa cell extract

[7] = biological target: T7, HeLa cell extract proteins (Homo sapiens, UniProt P52789)
T7 construct: endogenous in cells; host or cells: HeLa cell extract
T7 sequence (P52789 1-917): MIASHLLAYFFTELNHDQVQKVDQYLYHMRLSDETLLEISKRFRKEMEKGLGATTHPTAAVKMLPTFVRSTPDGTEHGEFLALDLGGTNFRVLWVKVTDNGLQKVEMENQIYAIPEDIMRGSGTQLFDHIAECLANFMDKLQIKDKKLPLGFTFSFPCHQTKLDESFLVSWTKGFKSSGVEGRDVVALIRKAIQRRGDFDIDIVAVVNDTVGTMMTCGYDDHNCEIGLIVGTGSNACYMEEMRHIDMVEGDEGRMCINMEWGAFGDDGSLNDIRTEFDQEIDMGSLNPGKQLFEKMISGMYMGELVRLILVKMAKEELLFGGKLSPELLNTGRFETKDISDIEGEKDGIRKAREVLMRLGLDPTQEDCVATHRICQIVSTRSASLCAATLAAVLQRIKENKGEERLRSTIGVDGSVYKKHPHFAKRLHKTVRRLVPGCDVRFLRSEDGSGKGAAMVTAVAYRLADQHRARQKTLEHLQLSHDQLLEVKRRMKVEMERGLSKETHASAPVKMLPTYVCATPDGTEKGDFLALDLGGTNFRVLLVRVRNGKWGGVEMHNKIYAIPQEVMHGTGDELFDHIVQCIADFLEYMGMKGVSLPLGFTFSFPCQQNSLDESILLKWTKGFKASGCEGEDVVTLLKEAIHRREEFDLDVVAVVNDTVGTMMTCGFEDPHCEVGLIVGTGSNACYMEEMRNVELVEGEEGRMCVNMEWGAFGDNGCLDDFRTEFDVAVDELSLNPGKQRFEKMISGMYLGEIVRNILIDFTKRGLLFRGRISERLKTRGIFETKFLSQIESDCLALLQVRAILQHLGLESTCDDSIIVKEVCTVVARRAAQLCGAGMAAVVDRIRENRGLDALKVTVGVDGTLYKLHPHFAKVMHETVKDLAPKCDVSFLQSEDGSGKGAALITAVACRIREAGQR

Row | Compound | fold changes relative to vehicle control ([1]; protein PDIA6, HeLa) | fold changes relative to vehicle control ([2]; HeLa, protein EIF4E) | fold changes relative to vehicle control ([3]; captured protein PANK4, HeLa) | fold changes relative to vehicle control ([4]; HeLa, protein ATAD3A) | fold changes relative to vehicle control ([5]; protein EIF3L, HeLa) | fold changes relative to vehicle control ([6]; protein ACTR2, HeLa) | fold changes relative to vehicle control ([7]; protein HK2, HeLa) | fold changes relative to vehicle control ([1]; HeLa, protein PDIA6) | fold changes relative to vehicle control ([2]; HeLa, captured protein EIF4E) | fold changes relative to vehicle control ([3]; HeLa, captured protein PANK4) | fold changes relative to vehicle control ([5]; HeLa, captured protein EIF3L) | fold changes relative to vehicle control ([6]; HeLa, protein ACTR2) | fold changes relative to vehicle control ([7]; HeLa, protein HK2) | fold changes relative to vehicle control [1] | fold changes relative to vehicle control [2] | fold changes relative to vehicle control [3] | fold changes relative to vehicle control [4] | fold changes relative to vehicle control [5] | fold changes relative to vehicle control [6] | fold changes relative to vehicle control [7]
1 | Nc1nc2cccc(-c3ccccc3)c2n1Cc1ccc(Cl)c(Cl)c1 [compound 3] | 0.89 | 1 | 1.02 | 1.05 | 1.09 | 1.13 | 0.9 | – | – | – | – | – | – | – | – | – | – | – | – | –
2 | NCCOCCOCC(=O)Nc1nc2ncc(CNc3ccc(C(=O)NC(CCC(=O)O)C(=O)O)cc3)nc2c(=O)[nH]1 (stereo not shown) [compound 6] | – | – | – | 1.17 | – | – | – | 1.35 | 1.03 | 0.96 | 1.07 | 1.18 | 1.21 | – | – | – | – | – | – | –
3 | Nc1nc2[nH]cc(CCc3ccc(C(=O)N[C@@H](CCC(=O)O)C(=O)O)cc3)c2c(=O)[nH]1 [PTX, pemetrexed] | – | – | – | – | – | – | – | – | – | – | – | – | – | 1.12 | 0.99 | 0.93 | 1.12 | 0.91 | 1.08 | 1.02
4 | Nc1nc2c(c(=O)[nH]1)N(C=O)C(CNc1ccc(C(=O)N[C@@H](CCC(=O)O)C(=O)O)cc1)CN2 (stereo partly shown) [LEU, leucovorin] | – | – | – | 0.98 | – | – | – | 1.03 | 1.09 | 0.97 | 1 | 0.99 | 1 | – | – | – | – | – | – | –
5 | CCCCCCOc1ccc(Cc2cnc(N)nc2N)cc1 [compound 1] | 1.09 | 0.94 | 0.98 | 1.13 | 1.05 | 1.06 | 1.11 | – | – | – | – | – | – | – | – | – | – | – | – | –
6 | NCCCNc1ccc(C(=O)NC(CCC(=O)O)C(=O)O)cc1 (stereo not shown) [compound 7] | – | – | – | 1.13 | – | – | – | 1 | 1.1 | 1.04 | 0.93 | 0.97 | 1.03 | – | – | – | – | – | – | –
7 | CCCCCCOc1cccc(Cc2cnc(N)nc2N)c1 [compound 2] | 1.75 | 0.97 | 1.12 | 1.15 | 1.25 | 1.44 | 1.43 | – | – | – | – | – | – | – | – | – | – | – | – | –
